Measured values: ChEMBL document CHEMBL6114997, “New curcumin derivative induces ferroptosis in MCF-7 cells through activating SLC7A11/GPX4 axis” (Bioorg Med Chem, 2025)
The source made the active and inactive calls. The rule behind the calls is not given here.

Experiments:
A549 = assay: Antiproliferative activity against human A549 cells assessed as inhibition of cell growth by MTT assay; type: functional, cell-based
HeLa = assay: Antiproliferative activity against human HeLa cells assessed as inhibition of cell growth by MTT assay; type: functional, cell-based
HepG2 = assay: Antiproliferative activity against human HepG2 cells assessed as inhibition of cell growth by MTT assay; type: functional, cell-based
MCF7 [1] = assay: Antiproliferative activity against human MCF7 cells assessed as inhibition of cell growth by MTT assay; type: functional, cell-based
HT-29 = assay: Antiproliferative activity against human HT-29 cells assessed as inhibition of cell growth by MTT assay; type: functional, cell-based
[2] = Antioxidant activity assessed as DPPH radical scavenging activity incubated for 30 mins in dark by absorbance based analysis; type: functional
MCF7 [3] = assay: Induction of ferroptosis in human MCF7 cells assessed as change in GPX4 expression incubated for 24 hrs by Western blot analysis; type: functional, cell-based; conditions: dose 1.5-3 µmol/L
MCF7 [4] = assay: Induction of intracellular ROS level in human MCF7 cells at 3.0 uM incubated for 24 hrs by DCFH-DA staining based fluorescence microscopic analysis (reference value: 4.66%); type: functional
MCF7 [5] = assay: Induction of ferroptosis in human MCF7 cells assessed as increase in intracellular ferrous ion level by measuring increase in fluorescence at 1.5 to 3.0 micromol/L incubated for 24 hrs by ferroOrange probe based fluorescence microscopic analysis; type: functional, cell-based; conditions: dose 1.5-3 µmol/L
MCF7 [6] = assay: Induction of ferroptosis in human MCF7 cells assessed as increase in MDA level at 3.0 micromol/L measured after 24 hrs by absorbance based analysis (reference value: 0.42 micromol/L); type: functional; conditions: dose 3 µmol/L
MCF7 [7] = assay: Induction of ferroptosis in human MCF7 cells assessed as decrease in GPX4 activity at 1.5 to 3.0 micromol/L by absorbance based analysis (reference value: 5.90 mU/mg); type: functional; conditions: dose 1.5-3 µmol/L
MCF7 [8] = assay: Induction of intracellular ROS level in human MCF7 cells at 1.5 uM incubated for 24 hrs by DCFH-DA staining based fluorescence microscopic analysis (reference value: 4.66%); type: functional
MCF7 [9] = assay: Induction of ferroptosis in human MCF7 cells assessed as decrease in SLC7A11 to GAPDH ratio at 1.5 to 3.0 micromol/L incubated for 24 hrs by Western blot analysis; type: functional, cell-based; conditions: dose 1.5-3 µmol/L
MCF7 [10] = assay: Induction of ferroptosis in human MCF7 cells assessed as decrease in GPX4 to beta-actin ratio at 1.5 to 3.0 micromol/L incubated for 24 hrs by Western blot analysis; type: functional, cell-based; conditions: dose 1.5-3 µmol/L
[11] = Potency index, ratio of cisplatin IC50 to test compound IC50 for antiproliferative activity against human HeLa cells assessed as inhibition of cell growth by MTT assay; type: functional
[12] = Potency index, ratio of cisplatin IC50 to test compound IC50 for antiproliferative activity against human HepG2 cells assessed as inhibition of cell growth by MTT assay; type: functional
[13] = Potency index, ratio of cisplatin IC50 to test compound IC50 for antiproliferative activity against human MCF7 cells assessed as inhibition of cell growth by MTT assay; type: functional
MCF7 [14] = assay: Induction of ferroptosis in human MCF7 cells assessed as increase in MDA level at 1.5 micromol/L measured after 24 hrs by absorbance based analysis (reference value: 0.42 micromol/L); type: functional; conditions: dose 1.5 µmol/L
MCF7 [15] = assay: Induction of intracellular ROS level in human MCF7 cells incubated for 24 hrs by DCFH-DA staining based fluorescence microscopic analysis; type: functional, cell-based; conditions: dose 1.5-3 µM
[16] = Potency index, ratio of cisplatin IC50 to test compound IC50 for antiproliferative activity against human A549 cells assessed as inhibition of cell growth by MTT assay; type: functional
[17] = Potency index, ratio of cisplatin IC50 to test compound IC50 for antiproliferative activity against human HT-29 cells assessed as inhibition of cell growth by MTT assay; type: functional

IC50 (A549)	IC50 (HeLa)	IC50 (HepG2)	IC50 (MCF7 [1])	IC50 (HT-29)	Structure (SMILES)	also measured
2.91 µM	16.2 µM	2.12 µM	11.3 µM	4.6 µM	COc1cc(/C=C/C(=O)C(=Cc2ccco2)C(=O)/C=C/c2ccc(OCCCCO[N+](=O)[O-])c(OC)c2)ccc1OCCCCO[N+](=O)[O-]	Activity [2]: Weak_effect; Compound Showed Weak Effect Compared With Vitamin C
> 50 µM	> 50 µM	> 50 µM	> 50 µM	> 50 µM	COc1cc(/C=C/c2cc(/C=C/c3ccc(OCCO[N+](=O)[O-])c(OC)c3)n(Cc3ccccc3)n2)ccc1OCCO[N+](=O)[O-]	
1.03 µM	6.78 µM	1.21 µM	1.39 µM	1.45 µM	COc1cc(/C=C/C(=O)C(=Cc2cccs2)C(=O)/C=C/c2ccc(OCCO[N+](=O)[O-])c(OC)c2)ccc1OCCO[N+](=O)[O-]	Activity (MCF7 [3]): Dose-dependent-effect; Activity (MCF7 [4]): 60.7%; Activity (MCF7 [5]): Active; Activity (MCF7 [6]): 1.25 µmol/L; Activity (MCF7 [7]): 3.52 mU/mg; Activity (MCF7 [8]): 12.5%; Activity (MCF7 [9]): Active; Activity (MCF7 [10]): Active; Ratio IC50 [11]: >=2; Ratio IC50 [12]: >=2; Ratio IC50 [13]: >=2; Activity (MCF7 [14]): 0.84 µmol/L; Activity (MCF7 [15]): Dose-dependent-effect; Ratio IC50 [16]: >=2; Ratio IC50 [17]: >=2
> 50 µM	> 50 µM	> 50 µM	> 50 µM	> 50 µM	COc1cc(/C=C/c2cc(/C=C/c3ccc(OCCCCO[N+](=O)[O-])c(OC)c3)n(-c3ccccc3F)n2)ccc1OCCCCO[N+](=O)[O-]	
> 50 µM	> 50 µM	> 50 µM	> 50 µM	> 50 µM	COc1cc(/C=C/c2cc(/C=C/c3ccc(OCCCO[N+](=O)[O-])c(OC)c3)n(Cc3ccccc3)n2)ccc1OCCCO[N+](=O)[O-]	
7.24 µM	> 50 µM	2.22 µM	18.4 µM	10.2 µM	COc1cc(/C=C/C(=O)C(=Cc2cccs2)C(=O)/C=C/c2ccc(OCCCCO[N+](=O)[O-])c(OC)c2)ccc1OCCCCO[N+](=O)[O-]	Activity [2]: Weak_effect; Compound Showed Weak Effect Compared With Vitamin C
> 50 µM	> 50 µM	> 50 µM	> 50 µM	> 50 µM	COc1cc(/C=C/c2cc(/C=C/c3ccc(OCCCCO[N+](=O)[O-])c(OC)c3)n(Cc3ccccc3)n2)ccc1OCCCCO[N+](=O)[O-]	
> 50 µM	> 50 µM	> 50 µM	> 50 µM	> 50 µM	COc1cc(/C=C/c2cc(/C=C/c3ccc(OCCCO[N+](=O)[O-])c(OC)c3)n(-c3ccc(C(F)(F)F)cc3)n2)ccc1OCCCO[N+](=O)[O-]	
> 50 µM	> 50 µM	> 50 µM	> 50 µM	> 50 µM	COc1cc(/C=C/c2cc(/C=C/c3ccc(OCCCO[N+](=O)[O-])c(OC)c3)n(-c3ccc(F)cc3)n2)ccc1OCCCO[N+](=O)[O-]	
> 50 µM	> 50 µM	> 50 µM	> 50 µM	> 50 µM	COc1cc(/C=C/c2cc(/C=C/c3ccc(OCCO[N+](=O)[O-])c(OC)c3)n(-c3ccccc3)n2)ccc1OCCO[N+](=O)[O-]	
2.06 µM	7.6 µM	1.74 µM	3.66 µM	2.5 µM	COc1cc(/C=C/C(=O)C(=Cc2ccco2)C(=O)/C=C/c2ccc(OCCCO[N+](=O)[O-])c(OC)c2)ccc1OCCCO[N+](=O)[O-]	Activity [2]: Weak_effect; Compound Showed Weak Effect Compared With Vitamin C
> 50 µM	> 50 µM	> 50 µM	> 50 µM	> 50 µM	COc1cc(/C=C/c2cc(/C=C/c3ccc(OCCCO[N+](=O)[O-])c(OC)c3)n(-c3ccccc3)n2)ccc1OCCCO[N+](=O)[O-]	

Further lines, the molecule ahead of its results:

Structure (SMILES)	IC50 (A549)	IC50 (HeLa)	IC50 (HepG2)	IC50 (MCF7 [1])	IC50 (HT-29)	also measured
COc1cc(/C=C/c2cc(/C=C/c3ccc(OCCO[N+](=O)[O-])c(OC)c3)n(-c3ccc(F)cc3)n2)ccc1OCCO[N+](=O)[O-]	> 50 µM	> 50 µM	> 50 µM	> 50 µM	> 50 µM	
COc1cc(/C=C/c2cc(/C=C/c3ccc(OCCCO[N+](=O)[O-])c(OC)c3)n(-c3ccccc3F)n2)ccc1OCCCO[N+](=O)[O-]	> 50 µM	> 50 µM	> 50 µM	> 50 µM	> 50 µM	
COc1cc(/C=C/c2cc(/C=C/c3ccc(OCCCO[N+](=O)[O-])c(OC)c3)n(-c3ccccn3)n2)ccc1OCCCO[N+](=O)[O-]	> 50 µM	> 50 µM	> 50 µM	> 50 µM	> 50 µM	
COc1cc(/C=C/c2cc(/C=C/c3ccc(OCCCCO[N+](=O)[O-])c(OC)c3)n(-c3ccccn3)n2)ccc1OCCCCO[N+](=O)[O-]	> 50 µM	> 50 µM	> 50 µM	> 50 µM	> 50 µM	
COc1cc(/C=C/C(=O)C(=Cc2cccs2)C(=O)/C=C/c2ccc(OCCCO[N+](=O)[O-])c(OC)c2)ccc1OCCCO[N+](=O)[O-]	1.27 µM	20.5 µM	1.44 µM	2.4 µM	1.81 µM	Activity [2]: Weak_effect; Compound Showed Weak Effect Compared With Vitamin C
COc1cc(/C=C/C(=O)C(=Cc2ccco2)C(=O)/C=C/c2ccc(OCCO[N+](=O)[O-])c(OC)c2)ccc1OCCO[N+](=O)[O-]	0.8 µM	14.2 µM	1.61 µM	2.32 µM	1.28 µM	Activity [2]: Weak_effect; Compound Showed Weak Effect Compared With Vitamin C
COc1cc(/C=C/c2cc(/C=C/c3ccc(OCCCCO[N+](=O)[O-])c(OC)c3)n(-c3ccccc3)n2)ccc1OCCCCO[N+](=O)[O-]	> 50 µM	> 50 µM	> 50 µM	> 50 µM	> 50 µM	
COc1cc(/C=C/c2cc(/C=C/c3ccc(OCCO[N+](=O)[O-])c(OC)c3)n(-c3ccccc3F)n2)ccc1OCCO[N+](=O)[O-]	> 50 µM	> 50 µM	> 50 µM	> 50 µM	> 50 µM	
COc1cc(/C=C/c2cc(/C=C/c3ccc(OCCCCO[N+](=O)[O-])c(OC)c3)n(-c3ccc(C(F)(F)F)cc3)n2)ccc1OCCCCO[N+](=O)[O-]	> 50 µM	> 50 µM	> 50 µM	> 50 µM	> 50 µM	
COc1cc(/C=C/c2cc(/C=C/c3ccc(OCC4CC4)c(OC)c3)n(-c3ccc(C(=O)OCCCO[N+](=O)[O-])cc3)n2)ccc1OCC1CC1	> 50 µM	> 50 µM	> 50 µM	> 50 µM	> 50 µM	
COc1cc(/C=C/c2cc(/C=C/c3ccc(OCC4CC4)c(OC)c3)n(-c3ccc(C(=O)OCCCCO[N+](=O)[O-])cc3)n2)ccc1OCC1CC1	> 50 µM	> 50 µM	> 50 µM	> 50 µM	> 50 µM	
COc1cc(/C=C/C(=O)CC(=O)/C=C/c2ccc(O)c(OC)c2)ccc1O [CURCUMIN]	24.6 µM	> 50 µM	> 50 µM	19.9 µM	22.9 µM	
COc1cc(/C=C/c2cc(/C=C/c3ccc(OCCO[N+](=O)[O-])c(OC)c3)n(-c3ccc(C(F)(F)F)cc3)n2)ccc1OCCO[N+](=O)[O-]	> 50 µM	> 50 µM	> 50 µM	> 50 µM	> 50 µM	
COc1cc(/C=C/c2cc(/C=C/c3ccc(OCCCCO[N+](=O)[O-])c(OC)c3)n(-c3ccc(F)cc3)n2)ccc1OCCCCO[N+](=O)[O-]	> 50 µM	> 50 µM	> 50 µM	> 50 µM	> 50 µM	
